Reference: patent US11491120B2, “Pharmacological prophylactics against stress-induced affective disorders in females” (The Trustees of Columbia University in the City of New York, priority 2017, dated 2022)
Entries after “also recorded” stand apart in the source; their conditions may differ.

How the values were obtained:
[1] = tested on: female 129S6/SvEv mice; assay: Contextual fear conditioning (CFC), 3-shock, freezing in training and context re-exposure; settings: for Freezing during 3-shock CFC training vs saline: 1 week before CFC
[2] = tested on: female 129S6/SvEv mice; assay: Forced swim test (FST), immobility time, after stress; settings: 1 week prophylactic drug
[3] = Contextual Fear Conditioning Re-exposure, Dunnett test Sal vs. drug (0.025), 1 week prophylactic drug
[4] = Contextual Fear Conditioning Re-exposure, Dunnett test Sal vs. drug (0.075), 1 week prophylactic drug
[5] = Contextual Fear Conditioning Re-exposure, Dunnett test Sal vs. drug (0.1), 1 week prophylactic drug
[6] = Contextual Fear Conditioning Re-exposure, Dunnett test Sal vs. drug (0.3), 1 week prophylactic drug
[7] = Contextual Fear Conditioning Re-exposure, Dunnett test Sal vs. drug (2.5), 1 week prophylactic drug
[8] = Contextual Fear Conditioning Re-exposure, Dunnett test Sal vs. drug (10), 1 week prophylactic drug
[9] = Contextual Fear Conditioning Training, Dunnett test Sal vs. drug (0.025), 1 week prophylactic drug
[10] = Contextual Fear Conditioning Training, Dunnett test Sal vs. drug (0.075), 1 week prophylactic drug
[11] = Contextual Fear Conditioning Training, Dunnett test Sal vs. drug (0.1), 1 week prophylactic drug
[12] = Contextual Fear Conditioning Training, Dunnett test Sal vs. drug (0.3), 1 week prophylactic drug
[13] = Contextual Fear Conditioning Training, Dunnett test Sal vs. drug (2.5), 1 week prophylactic drug
[14] = Contextual Fear Conditioning Training, Dunnett test Sal vs. drug (10), 1 week prophylactic drug

N[C@]1(c2ccccc2Cl)CCC[C@H](O)C1=O [(2S,6S)-HNK]
p, Sal vs. drug, Dunnett test: Freezing (Average), Contextual Fear Conditioning Re-exposure ([1]; 0.025 mg/kg, 1 week prophylactic drug): 0.9898 | p, Sal vs. drug, Dunnett test: Freezing (Average), Contextual Fear Conditioning Re-exposure ([1]; 0.075 mg/kg, 1 week prophylactic drug): 0.4829 | Freezing during 3-shock CFC training vs saline ([1]; 0.1 mg/kg, female mice): froze significantly less | p, Sal vs. drug, Dunnett test: Freezing (Average), Contextual Fear Conditioning Re-exposure ([1]; 0.1 mg/kg, 1 week prophylactic drug): 0.9999 | Freezing during 3-shock CFC training vs saline ([1]; 0.3 mg/kg, female mice): froze significantly more | p, Sal vs. drug, Dunnett test: Freezing (Average), Contextual Fear Conditioning Re-exposure ([1]; 0.3 mg/kg, 1 week prophylactic drug): 0.1973 | p, Sal vs. drug, Dunnett test: Freezing (Average), Contextual Fear Conditioning Re-exposure ([1]; 2.5 mg/kg, 1 week prophylactic drug): 0.9996 | p, Sal vs. drug, Dunnett test: Freezing (Average), Contextual Fear Conditioning Re-exposure ([1]; 10 mg/kg, 1 week prophylactic drug): 0.9896 | p, Freezing (min 1-5) [1, 3]: 0.9898 | p, Freezing (min 2) [1, 3]: >0.9999 | p, Freezing (min 3) [1, 3]: 0.7775 | p, Freezing (min 4) [1, 3]: 0.9990 | p, Freezing (min 5) [1, 3]: 0.9996 | p, Freezing (min 1-5) [1, 4]: 0.4829 | p, Freezing (min 2) [1, 4]: 0.9135 | p, Freezing (min 3) [1, 4]: 0.3091 | p, Freezing (min 4) [1, 4]: 0.5808 | p, Freezing (min 5) [1, 4]: 0.2703 | p, Freezing (min 1-5) [1, 5]: 0.9999 | p, Freezing (min 2) [1, 5]: 0.9997 | p, Freezing (min 3) [1, 5]: 0.9998 | p, Freezing (min 4) [1, 5]: 0.9889 | p, Freezing (min 5) [1, 5]: >0.9999 | p, Freezing (min 1-5) [1, 6]: 0.1973 | p, Freezing (min 2) [1, 6]: 0.2064 | p, Freezing (min 3) [1, 6]: 0.2280 | p, Freezing (min 4) [1, 6]: 0.8082 | p, Freezing (min 5) [1, 6]: 0.3262 | p, Freezing (min 1-5) [1, 7]: 0.9996 | p, Freezing (min 2) [1, 7]: 0.9991 | p, Freezing (min 3) [1, 7]: 0.9908 | p, Freezing (min 4) [1, 7]: 0.9997 | p, Freezing (min 5) [1, 7]: >0.9999 | p, Freezing (min 1-5) [1, 8]: 0.9896 | p, Freezing (min 2) [1, 8]: 0.5764 | p, Freezing (min 3) [1, 8]: 0.9993 | p, Freezing (min 4) [1, 8]: 0.9991 | p, Freezing (min 5) [1, 8]: >0.9999 | p, Freezing (min 1-5) [1, 9]: 0.9955 | p, Freezing (min 4) [1, 9]: 0.7894 | p, Freezing (min 5) [1, 9]: >0.9999 | p, Freezing (min 1-5) [1, 10]: 0.9996 | p, Freezing (min 4) [1, 10]: 0.9991 | p, Freezing (min 5) [1, 10]: >0.9999 | p, Freezing (min 1-5) [1, 11]: 0.2466 | p, Freezing (min 4) [1, 11]: 0.3064 | p, Freezing (min 5) [1, 11]: 0.5117 | * (significance), Freezing (min 1-5) [1, 12]: ** (** p<0.01) | p, Freezing (min 1-5) [1, 12]: 0.0085 | p, Freezing (min 4) [1, 12]: 0.0675 | p, Freezing (min 5) [1, 12]: 0.0731 | p, Freezing (min 1-5) [1, 13]: 0.6733 | p, Freezing (min 4) [1, 13]: 0.9438 | p, Freezing (min 5) [1, 13]: 0.7492 | p, Freezing (min 1-5) [1, 14]: 0.5049 | p, Freezing (min 4) [1, 14]: 0.7737 | p, Freezing (min 5) [1, 14]: 0.5845 | Freezing during re-exposure to the CFC training context vs saline ([1]; single i.p. injection 1 week before 3-shock CFC, all doses, female mice): do not significantly alter freezing; also recorded: did not alter overall freezing | Attenuation of learned fear ([1]; single injection 1 week before stressor, female mice): do not attenuate learned fear | p, Sal vs. drug, Dunnett test: Immobility Time (min 1), Forced Swim Test Day 2 ([2]; 0.025 mg/kg): 0.9954 | p, Sal vs. drug, Dunnett test: Immobility Time (min 1-6), Forced Swim Test Day 2 ([2]; 0.025 mg/kg): 0.9996 | p, Sal vs. drug, Dunnett test: Immobility Time (min 2), Forced Swim Test Day 2 ([2]; 0.025 mg/kg): 0.9993 | p, Sal vs. drug, Dunnett test: Immobility Time (min 4), Forced Swim Test Day 2 ([2]; 0.025 mg/kg): 0.9518 | p, Sal vs. drug, Dunnett test: Immobility Time (min 5), Forced Swim Test Day 2 ([2]; 0.025 mg/kg): 0.9885 | p, Sal vs. drug, Dunnett test: Immobility Time (min 6), Forced Swim Test Day 2 ([2]; 0.025 mg/kg): >0.9999 | p, Sal vs. drug, Dunnett test: Immobility Time Average (min 3-6), Forced Swim Test Day 2 ([2]; 0.025 mg/kg): 0.9999 | * (significance), Sal vs. drug, Dunnett test: Immobility Time (min 1-6), Forced Swim Test Day 2 ([2]; 0.075 mg/kg): ** (** p<0.01) | * (significance), Sal vs. drug, Dunnett test: Immobility Time (min 5), Forced Swim Test Day 2 ([2]; 0.075 mg/kg): *** (*** p<0.0001) | * (significance), Sal vs. drug, Dunnett test: Immobility Time (min 6), Forced Swim Test Day 2 ([2]; 0.075 mg/kg): ** (** p<0.01) | p, Sal vs. drug, Dunnett test: Immobility Time (min 1), Forced Swim Test Day 2 ([2]; 0.075 mg/kg): 0.9993 | p, Sal vs. drug, Dunnett test: Immobility Time (min 1-6), Forced Swim Test Day 2 ([2]; 0.075 mg/kg): 0.0025 | p, Sal vs. drug, Dunnett test: Immobility Time (min 2), Forced Swim Test Day 2 ([2]; 0.075 mg/kg): 0.9998 | p, Sal vs. drug, Dunnett test: Immobility Time (min 4), Forced Swim Test Day 2 ([2]; 0.075 mg/kg): 0.3169 | p, Sal vs. drug, Dunnett test: Immobility Time (min 5), Forced Swim Test Day 2 ([2]; 0.075 mg/kg): <0.0001 | p, Sal vs. drug, Dunnett test: Immobility Time (min 6), Forced Swim Test Day 2 ([2]; 0.075 mg/kg): 0.0013 | p, Sal vs. drug, Dunnett test: Immobility Time Average (min 3-6), Forced Swim Test Day 2 ([2]; 0.075 mg/kg): 0.9990 | * (significance), Sal vs. drug, Dunnett test: Immobility Time (min 1), Forced Swim Test Day 2 ([2]; 0.1 mg/kg): * (* p<0.05)
